From US20150121570A1, “GENE […] DROUGHT STRESS TOLERANCE AND T[…] WITH THE SAME” (priority 2013, published 2015)

Columns and labels:
Format in all cases: in vivo, Arabidopsis thaliana
[1] = system: mature leaves of wild-type and atamdr plants; test: ABA-induced H2O2 production analyzed by DAB staining; conditions: 0 or 100 μM ABA
Description: (§1) FIGS. 4a to 4c represent stomatal aperture and H2O2 production of wild-type, atamdr plants in response to different concentrations of ABA. […] Light-grown, 4-week-old mature leaves of wild-type and atamdr plants were incubated in stomatal opening solution for 2 h and transferred to solutions containing the 10 μM ABA for 2 h. Stomata on the abaxial surface were observed by light microscopy. […] Leaves from wild-type, atamdr plants were treated with 0 or 100 μM ABA for 2 h and transferred to 100 μg/mL DAB (3,3′-diaminobenzidine-4HCl) solution overnight. The presence and level of H2O2 in the leaves were visualized as a dark brown color.
To investigate the accumulation of H2O2, light-grown, 4-week-old mature leaves of wild-type (WT), atamdr plants were incubated in stomatal opening solution for 2 h and treated with 0 or 100 μM ABA. Leaves were transferred to 100 μg/mL DAB (3,3′-diaminobenzidine-4HCl) solution overnight, and washed and fixed by 96% ethanol. Leaves were observed after complete chlorosis (Luis David Maldonado-Bonilla et al.; Eur J Plant Pathol. 121:439449, 2008).
To investigate the accumulation of H2O2, light-grown, 4-week-old mature leaves of wild-type and atamdr plants were treated with 0 or 100 μM ABA, and stained with 100 ng/mL DAB (3,3′-diaminobenzidine-4HCl) solution in dark.

AtAIRP2 gene expression = test: Gene expression after ABA treatment by RT-PCR; conditions: atamdr mutant, 300 μM ABA hormone, 1 hour and 3 hours
Description: FIGS. 2a to 2d represent the expression patterns of AtAMDR in response to various abiotic stress conditions. Total RNA was prepared from light-grown, 7-day-old Arabidopsis seedlings, which had been treated with drought (FIG. 2a), cold (FIG. 2b), high salinity (300 mM NaCl) (FIG. 2c) or 100 μM ABA (FIG. 2d). Induction patterns of AtAMDR were investigated by RT-PCR. RD29A was used as representative control gene for drought, cold and salt stress, and Rab18 was used as control gene for ABA.
Total RNA was prepared from 7-day-old Arabidopsis seedlings, which had been treated with drought (1-2 h), cold (4° C. for 6-12 h), high salinity (300 mM NaCl for 1-3 h) or 100 μM ABA (1-3 h). Induction patterns of AtAMDR were investigated by RT-PCR.
In order to determine expressions of the AtAMDR gene to drought stress, the wild type Arabidopsis thaliana seedlings which were grown on medium for 2 weeks were exposed in the air, and sampled after 1 hour and 2 hours. In order to determine expressions of the AtAMDR gene to salt stress, the wild type Arabidopsis thaliana seedlings which were grown on medium for 2 weeks were treated with 300 mM sodium chloride, and sampled after 1 hour and 3 hours. […]
The AtAIRP2 gene expressions in various abiotic stresses were analyzed by RT-PCR. […]

[2] = system: stomata of mature leaves of wild-type and atamdr mutant plants; test: ABA-induced stomatal closure (stomatal aperture measurement); conditions: 10 μm ABA for 2 h; for stomatal aperture (the ratio of width to length): 4-week-old leaves
Description: as §1
Mature leaves of light-grown, 4-week-old wild-type and atamdr mutant plants were used for the observation of mature stomata. Detached leaves were incubated in stomatal opening solution (10 mM MES-KOH, […] CaCl2, 10 mM KCl) for 2 h and then transferred to stomatal opening solution supplemented with 0 or 10 μM ABA for 2 h. Subsequently, epidermal strips were mounted on glass slides and observed with a light microscope.
Mature leaves of light-grown, 4-week-old wild-type and atamdr mutant plants were detached and incubated in stomatal opening solution and then transferred to stomatal opening solution supplemented with various concentrations of ABA (0 and 10 μM) for 2 h. […] Stomatal aperture of wild-type plants treated with 10 μm ABA was approximately 0.09 which was 2-fold closed than that of mutant, while stomatal aperture of atamdr mutant treated with 10 μm ABA was approximately 0.175, which was 1.94-fold compared to that of wild-type plants.

## CC1=CC(=O)CC(C)(C)[C@@]1(O)/C=C/C(C)=C\C(=O)O [ABA, abscisic acid]
[1]; atamdr leaves
  accumulation of H2O2: significantly delayed
[1]; wild-type leaves
  accumulation of H2O2: drastically arisen
AtAIRP2 gene expression
  AtAIRP2 gene expression: not affected
[2]
  stomatal aperture of atamdr mutant compared to that of wild-type plants: 1.94 fold
[2]; atamdr mutant
  stomatal aperture (the ratio of width to length): approximately 0.175
[2]; wild-type plants
  stomatal aperture (the ratio of width to length): approximately 0.09
